Laboratory results reported in article PMC8296573, “Synthesis and Biological Evaluation of Fingolimod Derivatives as Antibacterial Agents” (ACS Omega, 2021).
Values after ≈ are worked out from the molar mass of the structure shown.

Key:
HL-60 = assay: Cytotoxicity, resazurin staining assay; format: cell-based, human; conditions: 24 h incubation
In short: (§1)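 A549 and HEp-2 cells (1 × 10^4/well) attached for 24 h before compound addition; HL-60 seeded directly with compounds; 0.25% DMSO final, 24 h exposure. Adherent cells then washed and given 20 μM resazurin for 2 h; HL-60 received resazurin directly for 4 h; fluorescence read-out, 1% Triton X-100 as positive control.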

A549 = assay: Cytotoxicity, resazurin staining assay; format: cell-based, human; conditions: 24 h incubation
In short: as §1

HEp-2 = assay: Cytotoxicity, resazurin staining assay; format: cell-based, human; conditions: 24 h incubation
In short: as §1

[1] = test system: C. violaceum ATCC 31532 (wild type); assay: Quorum sensing inhibition assay (violacein) with parallel resazurin viability; format: cell-based, Chromobacterium violaceum; conditions: wild-type strain
Procedure: (§2) The QS inhibitory activity of the compounds was assessed as described previously.[31],[47] Briefly, two QS reporter strains, C. violaceum ATCC 31532 and the violacein-negative, mini-Tn5 mutant of C. violaceum CV026 (NCTC 13278), were grown on LBA (for CV026, the agar was supplemented with kanamycin at 100 μg mL^–1) overnight at 27 °C. Colonies were suspended in PDYT (0.5% peptone, 0.3% D-glucose, 0.25% yeast extract, 0.05% L-tryptophan, w/v) to reach an OD600 of 0.02. The CV026 culture was supplemented with C6-HSL (N-hexanoyl-L-homoserine lactone) (10007896, Cayman Chemical, MI) at 0.5 μM to induce the QS-moderated synthesis of violacein. For each strain, 200 μL of bacterial culture was added per well in two identical 96-well plates containing the compounds (2 μL per well for a final DMSO concentration of 1%). In each 96-well plate, untreated cells were used as negative controls and quercetin (Q4951, Sigma-Aldrich) and azithromycin (PZ0007, Sigma-Aldrich) were included as positive controls for QS inhibition and cell viability (bactericidal activity), respectively. The plates were incubated at 27 °C under aerobic conditions (200 rpm) for 22 h.
(§3) The synthesized and nonsoluble violacein was collected from the first 96-well plate by centrifugation (4000 rpm, for 15 min, 20 °C), and the supernatants were removed. Violacein was dissolved in 100 μL per well of 96% (v/v) ethanol and was separated from cells by centrifugation as described above. The supernatant containing violacein was then transferred to a new 96-well plate, and the absorbance was measured at 595 nm using a Multiskan Sky Microplate spectrophotometer. To detect any bactericidal effects, the viability of the cells was measured in the second replica plate by adding 10 μL of 400 μM resazurin in each well and incubating the plate for 30 min in the dark at 27 °C (220 rpm). After centrifugation of the plate to separate the cells from the solution, 100 μL of each well were transferred into a new 96-well plate and the fluorescence was recorded as described above using the Varioskan LUX multimode plate reader.

[2] = test system: C. violaceum CV026 (AHL-deficient mutant); assay: as above; format: cell-based, Chromobacterium violaceum; conditions: mutant strain
Procedure: as §2, §3

Solubility in DMSO = format: physicochemical
S. aureus ATCC 25923 [3] = assay: S. aureus attachment on LDPE tubes, alone or in coculture with differentiated HL-60 cells; format: cell-based, Staphylococcus aureus; conditions: 25 μM, 24 h
Procedure: The coculture system was as previously described.[40] Briefly, the bacteria were prepared as described above and the concentration was adjusted to 2 × 10^7 CFU mL^–1 in RPMI 1640. The media of the differentiated HL-60 cells was refreshed with RPMI 1640 24 h before the experiments to remove possible traces of antibiotics. On the day of the experiment, the cells were counted and adjusted to a concentration of 2 × 10^5 cells mL^–1 in RPMI 1640. Each suspension (bacterial and differentiated HL-60 cells, 500 μL of each) was added on 1-cm-long sections of a sterilized fine bore LDPE tubing (Smiths Medical ASD, Minneapolis, MN) in 24-well plates (Nunclon Δ surface, Nunc, Roskilde, Denmark). Fingolimod was also added to the wells at a concentration of 25 μM (0.25% DMSO). Coculture controls with no added compound were included, as well as bacterial controls without differentiated HL-60 cells with and without fingolimod. The plates were incubated for 24 h in the same conditions as for cell maintenance. Then, the LDPE tubes were gently washed with TSB to remove adhering planktonic cells and transferred to Eppendorf tubes containing 1 mL of 0.5% (w/v) Tween 20-TSB solution. Next, the tubes were sonicated in a water bath sonicator (Branson Ultrasonics, Danbury, CT) for 5 min at 35 kHz. The tubes were vortexed for 20 s prior to and after the sonication step. […]

A. baumannii NCTC 13423 = test system: A. baumannii NCTC 13423; design: method as in PMID 33233348; conditions: previously reported; cited from earlier work
S. aureus ATCC 25923 [4] = test system: S. aureus ATCC 25923; design: method as in PMID 33233348; conditions: previously found; cited from earlier work

## 2-Amino-2-(4-decylbenzyl)propane-1,3-diol [Compound 45]
HL-60
  CC50: 3.2 ± 1 µM
A549
  CC50: 27.4 ± 15.1 µM
HEp-2
  CC50: > 40 µM

## CCCCCCCCCCc1ccc(CCC(N)(CO)CO)nc1 [Compound 62, 2-Amino-2-[2-(5-decylpyridin-2-yl)ethyl]propane-1,3-diol]
[1]
  QSI activity compared with fingolimod: significantly worse than fingolimod

## CCCCCCCCc1ccc2cc(CC(N)(CO)CO)ccc2c1 [Compound 79, 2-Amino-2-[(6-octylnaphthalen-2-yl)methyl]propane-1,3-diol]
[2]
  QSI activity compared with fingolimod: significantly lower QSI activity than fingolimod
[1]
  QSI activity compared with fingolimod: significantly lower QSI activity than fingolimod

## CCCCCCCCCCc1ccc2nc(CCC(N)(CO)CO)ccc2c1 [Compound 81, 2-Amino-2-[2-(6-decylquinolin-2-yl)ethyl]propane-1,3-diol]
Solubility in DMSO
  Solubility in dimethyl sulfoxide (DMSO): not fully soluble

## CCCCCCCCc1ccc2ccc(CC(N)(CO)CO)nc2c1 [Compound 82, 2-Amino-2-[(7-octylquinolin-2-yl)methyl]propane-1,3-diol]
[2]
  QSI activity compared with fingolimod: significantly better QSI activity

## CCCCCCCCc1ccc(CCC(N)(CO)CO)cc1 [fingolimod, Fingolimod]
S. aureus ATCC 25923 [3]; in combination with HL-60 cells, vs coculture control (p = 0.042)
  Bacterial attachment on LDPE tubes: significant reduction
S. aureus ATCC 25923 [3]; in the absence of HL-60 cells, vs monoculture control (p = 0.013)
  Numbers of attached viable S. aureus on LDPE tubes: significantly reduced
A. baumannii NCTC 13423
  MIC A. baumannii: 25 µM (≈ 7.69 µg/mL)
Solubility in DMSO
  Solubility in dimethyl sulfoxide (DMSO): not fully soluble
S. aureus ATCC 25923 [4]
  MIC in pre-exposure, S. aureus: 15 µM (≈ 4.61 µg/mL)
